Reference: patent publication US20230081426A1, “COMPOUNDS AND METHODS FOR KRAS MODULATION AND INDICATIONS THEREFOR” (Plexxikon Inc., priority 2020, published 2023)

Columns and labels:
[1] = biological target: T1, G12C-mutant human KRAS (amino acid residues 1-188) (Homo sapiens, UniProt P01116, G12C); assay: KRAS Binding Disruption Assay (AlphaScreen; biotinylated KRpep-2d analogue or RAF1-RBD), G12C; settings: geometric mean, read-out: KRAS GMean IC50 (uM) MUTATION: G12C
T1 construct: G12D or G12C-mutant human KRAS (amino acid residues 1-188) with FLAG tag; made in house; host or cells: E. coli
Procedure, shortened: (§1)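 AlphaScreen readout: signal falls as compound displaces biotinylated KRpep-2d analogue or RAF1-RBD from mutant KRAS. Both partners at 5-20 nM, 1 h binding at 25° C, then 10 μg/mL Anti-Flag acceptor and streptavidin donor beads for 1 h. IC50 by nonlinear regression of % inhibition.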

[2] = biological target: T2, G12D-mutant human KRAS (amino acid residues 1-188) (Homo sapiens, UniProt P01116, G12D); assay: KRAS Binding Disruption Assay (AlphaScreen; biotinylated KRpep-2d analogue or RAF1-RBD), G12D; settings: KRAS G12D; geometric mean; read-out: KRAS GMean IC50 (uM) MUTATION: G12D
T2 construct: G12D or G12C-mutant human KRAS (amino acid residues 1-188) with FLAG tag; made in house; host or cells: E. coli
Procedure, shortened: as §1

T2 sequence (P01116 1-188 isoform P01116-2 G12D): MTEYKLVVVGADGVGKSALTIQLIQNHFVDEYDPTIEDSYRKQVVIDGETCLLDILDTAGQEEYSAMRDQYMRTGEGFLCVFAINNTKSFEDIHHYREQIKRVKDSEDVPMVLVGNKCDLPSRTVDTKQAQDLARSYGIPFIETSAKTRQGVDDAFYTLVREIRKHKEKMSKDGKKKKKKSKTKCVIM
T1 sequence (P01116 1-188 isoform P01116-2 G12C): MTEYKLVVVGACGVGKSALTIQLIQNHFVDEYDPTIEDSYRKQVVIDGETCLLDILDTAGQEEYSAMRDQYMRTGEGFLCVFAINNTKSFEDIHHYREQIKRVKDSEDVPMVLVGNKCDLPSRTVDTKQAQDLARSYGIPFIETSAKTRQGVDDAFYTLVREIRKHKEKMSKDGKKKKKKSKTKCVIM

SMILES: CN1CCC[C@H]1COc1nc(N2C[C@H]3CC[C@@H](C2)N3)c2ccc(-c3cccc4cccc(Cl)c34)c(F)c2n1 [P-0782, 4-((1R,5S)-3,8-diazabicyclo[3.2.1]octan-3-yl)-7-(8-chloronaphthalen-1-yl)-8-fluoro-2-(((S)-1-methylpyrrolidin-2-yl)methoxy)quinazoline]
- IC50 [1]: 10 to 100 µM
- IC50 [2]: 0.0001 to 10 µM

SMILES: CN1CCC[C@H]1COc1nc(N2C[C@H]3CC[C@@H](C2)N3)c2ccc(-c3cccc4ccccc34)c(F)c2n1 [P-0783, 4-((1R,5S)-3,8-diazabicyclo[3.2.1]octan-3-yl)-8-fluoro-2-(((S)-1-methylpyrrolidin-2-yl)methoxy)-7-(naphthalen-1-yl)quinazoline]
- IC50 [1]: 100 to 1000 µM
- IC50 [2]: 0.0001 to 10 µM

SMILES: OCCOc1nc(N2C[C@H]3CC[C@@H](C2)N3)c2ccc(-c3cc(O)cc4ccccc34)c(F)c2n1 [P-0784, 4-(4-((1R,5S)-3,8-diazabicyclo[3.2.1]octan-3-yl)-8-fluoro-2-(2-hydroxyethoxy)quinazolin-7-yl)naphthalen-2-ol]
- IC50 [1]: 10 to 100 µM
- IC50 [2]: 0.0001 to 10 µM

SMILES: CC1(COc2nc(N3C[C@H]4CC[C@@H](C3)N4)c3ccc(-c4cc(O)cc5ccccc45)c(F)c3n2)COC1 [P-0785, 4-(4-((1R,5S)-3,8-diazabicyclo[3.2.1]octan-3-yl)-8-fluoro-2-((3-methyloxetan-3-yl)methoxy)quinazolin-7-yl)naphthalen-2-ol]
- IC50 [1]: 100 to 1000 µM
- IC50 [2]: 100 to 1000 µM

SMILES: Cn1cncc1COc1nc(N2C[C@H]3CC[C@@H](C2)N3)c2ccc(-c3cc(O)cc4ccccc34)c(F)c2n1 [P-0786, 4-(4-((1R,5S)-3,8-diazabicyclo[3.2.1]octan-3-yl)-8-fluoro-2-((1-methyl-1H-imidazol-5-yl)methoxy)quinazolin-7-yl)naphthalen-2-ol]
- IC50 [1]: 0.0001 to 10 µM
- IC50 [2]: 0.0001 to 10 µM

SMILES: Oc1cc(-c2ccc3c(N4C[C@H]5CC[C@@H](C4)N5)nc(OC4CCC(O)CC4)nc3c2F)c2ccccc2c1 (stereo partly drawn) [P-0787, 4-(4-((1R,5S)-3,8-diazabicyclo[3.2.1]octan-3-yl)-8-fluoro-2-((4-hydroxycyclohexyl)oxy)quinazolin-7-yl)naphthalen-2-ol]
- IC50 [1]: 10 to 100 µM
- IC50 [2]: 0.0001 to 10 µM

SMILES: Fc1cc2c(N3C[C@H]4CC[C@@H](C3)N4)nc(OCC34CCCN3CCC4)nc2c(F)c1-c1c[nH]c2ccc(F)c(F)c12 [P-0788, 4-((1R,5S)-3,8-diazabicyclo[3.2.1]octan-3-yl)-7-(4,5-difluoro-1H-indol-3-yl)-6,8-difluoro-2-((tetrahydro-1H-pyrrolizin-7a(5H)-yl)methoxy)quinazoline]
- IC50 [1]: 0.0001 to 10 µM
- IC50 [2]: 0.0001 to 10 µM

SMILES: Fc1cc2[nH]cc(-c3c(F)cc4c(N5C[C@H]6CC[C@@H](C5)N6)nc(OCC56CCCN5CCC6)nc4c3F)c2cc1F [P-0789, 4-((1R,5S)-3,8-diazabicyclo[3.2.1]octan-3-yl)-7-(5,6-difluoro-1H-indol-3-yl)-6,8-difluoro-2-((tetrahydro-1H-pyrrolizin-7a(5H)-yl)methoxy)quinazoline]
- IC50 [1]: 10 to 100 µM
- IC50 [2]: 0.0001 to 10 µM

SMILES: Cc1cccc2[nH]cc(-c3c(F)cc4c(N5C[C@H]6CC[C@@H](C5)N6)nc(OCC56CCCN5CCC6)nc4c3F)c12 [P-0790, 4-((1R,5S)-3,8-diazabicyclo[3.2.1]octan-3-yl)-6,8-difluoro-7-(4-methyl-1H-indol-3-yl)-2-((tetrahydro-1H-pyrrolizin-7a(5H)-yl)methoxy)quinazoline]
- IC50 [1]: 0.0001 to 10 µM
- IC50 [2]: 0.0001 to 10 µM

SMILES: Oc1cc(-c2ccc3c(N4C[C@H]5CC[C@@H](C4)N5)nc(N4CCC(O)C4)nc3c2F)c2ccccc2c1 (stereo partly drawn) [P-0791, 1-(4-((1R,5S)-3,8-diazabicyclo[3.2.1]octan-3-yl)-8-fluoro-7-(3-hydroxynaphthalen-1-yl)quinazolin-2-yl)pyrrolidin-3-ol]
- IC50 [1]: 100 to 1000 µM
- IC50 [2]: 0.0001 to 10 µM

SMILES: CC1(O)CN(c2nc(N3C[C@H]4CC[C@@H](C3)N4)c3ccc(-c4cc(O)cc5ccccc45)c(F)c3n2)C1 [P-0792, 1-(4-((1R,5S)-3,8-diazabicyclo[3.2.1]octan-3-yl)-8-fluoro-7-(3-hydroxynaphthalen-1-yl)quinazolin-2-yl)-3-methylazetidin-3-ol]
- IC50 [1]: 10 to 100 µM
- IC50 [2]: 0.0001 to 10 µM

SMILES: NC1CN(c2nc(N3C[C@H]4CC[C@@H](C3)N4)c3ccc(-c4cc(O)cc5ccccc45)c(F)c3n2)C1 [P-0793, 4-(2-(3-aminoazetidin-1-yl)-4-((1R,5S)-3,8-diazabicyclo[3.2.1]octan-3-yl)-8-fluoroquinazolin-7-yl)naphthalen-2-ol]
- IC50 [1]: 10 to 100 µM
- IC50 [2]: 0.0001 to 10 µM

SMILES: CN(C)C1CN(c2nc(N3C[C@H]4CC[C@@H](C3)N4)c3ccc(-c4cc(O)cc5ccccc45)c(F)c3n2)C1 [P-0794, 4-(4-((1R,5S)-3,8-diazabicyclo[3.2.1]octan-3-yl)-2-(3-(dimethylamino)azetidin-1-yl)-8-fluoroquinazolin-7-yl)naphthalen-2-ol]
- IC50 [1]: 10 to 100 µM
- IC50 [2]: 0.0001 to 10 µM

SMILES: Cc1cccc2c(-c3c(F)cc4c(N5C[C@H]6CC[C@@H](C5)N6)nc(OC[C@@H]5CCCN5C)nc4c3F)c[nH]c12 [P-0795, 4-((1R,5S)-3,8-diazabicyclo[3.2.1]octan-3-yl)-6,8-difluoro-7-(7-methyl-1H-indol-3-yl)-2-(((S)-1-methylpyrrolidin-2-yl)methoxy)quinazoline]
- IC50 [1]: 10 to 100 µM
- IC50 [2]: 10 to 100 µM

SMILES: CN1CCC[C@H]1COc1nc(N2C[C@H]3CC[C@@H](C2)N3)c2cc(F)c(-c3c[nH]c4cc(Cl)ccc34)c(F)c2n1 [P-0796, 4-((1R,5S)-3,8-diazabicyclo[3.2.1]octan-3-yl)-7-(6-chloro-1H-indol-3-yl)-6,8-difluoro-2-(((S)-1-methylpyrrolidin-2-yl)methoxy)quinazoline]
- IC50 [1]: 100 to 1000 µM
- IC50 [2]: 0.0001 to 10 µM

SMILES: COc1cccc2[nH]cc(-c3c(F)cc4c(N5C[C@H]6CC[C@@H](C5)N6)nc(OC[C@@H]5CCCN5C)nc4c3F)c12 [P-0797, 4-((1R,5S)-3,8-diazabicyclo[3.2.1]octan-3-yl)-6,8-difluoro-7-(4-methoxy-1H-indol-3-yl)-2-(((S)-1-methylpyrrolidin-2-yl)methoxy)quinazoline]
- IC50 [1]: 10 to 100 µM
- IC50 [2]: 0.0001 to 10 µM

SMILES: CN1CCC[C@H]1COc1nc(N2C[C@H]3CC[C@@H](C2)N3)c2cc(F)c(-c3c[nH]c4cc(C#N)ccc34)c(F)c2n1 [P-0798, 3-(4-((1R,5S)-3,8-diazabicyclo[3.2.1]octan-3-yl)-6,8-difluoro-2-(((S)-1-methylpyrrolidin-2-yl)methoxy)quinazolin-7-yl)-1H-indole-6-carbonitrile]
- IC50 [1]: 100 to 1000 µM
- IC50 [2]: 10 to 100 µM

SMILES: COc1cccc2c(-c3c(F)cc4c(N5C[C@H]6CC[C@@H](C5)N6)nc(OC[C@@H]5CCCN5C)nc4c3F)c[nH]c12 [P-0799, 4-((1R,5S)-3,8-diazabicyclo[3.2.1]octan-3-yl)-6,8-difluoro-7-(7-methoxy-1H-indol-3-yl)-2-(((S)-1-methylpyrrolidin-2-yl)methoxy)quinazoline]
- IC50 [1]: 100 to 1000 µM
- IC50 [2]: 10 to 100 µM

SMILES: CN1CCC[C@H]1COc1nc(N2C[C@H]3CC[C@@H](C2)N3)c2cc(F)c(-c3c[nH]c4c(Cl)cccc34)c(F)c2n1 [P-0800, 4-((1R,5S)-3,8-diazabicyclo[3.2.1]octan-3-yl)-7-(7-chloro-1H-indol-3-yl)-6,8-difluoro-2-(((S)-1-methylpyrrolidin-2-yl)methoxy)quinazoline]
- IC50 [1]: 100 to 1000 µM
- IC50 [2]: 10 to 100 µM

SMILES: CN1CCC[C@H]1COc1nc(N2C[C@H]3CC[C@@H](C2)N3)c2cc(F)c(-c3cn(C)c4ccccc34)c(F)c2n1 [P-0801, 4-((1R,5S)-3,8-diazabicyclo[3.2.1]octan-3-yl)-6,8-difluoro-7-(1-methyl-1H-indol-3-yl)-2-(((S)-1-methylpyrrolidin-2-yl)methoxy)quinazoline]
- IC50 [1]: 100 to 1000 µM
- IC50 [2]: 10 to 100 µM

SMILES: O=C1CCC(COc2nc(N3C[C@H]4CC[C@@H](C3)N4)c3ccc(-c4cc(O)cc5ccccc45)c(F)c3n2)N1 (stereo partly drawn) [P-0802, 5-(((4-((1R,5S)-3,8-diazabicyclo[3.2.1]octan-3-yl)-8-fluoro-7-(3-hydroxynaphthalen-1-yl)quinazolin-2-yl)oxy)methyl)pyrrolidin-2-one]
- IC50 [1]: 10 to 100 µM
- IC50 [2]: 0.0001 to 10 µM

SMILES: Oc1cc(-c2ccc3c(N4C[C@H]5CC[C@@H](C4)N5)nc(OCCn4ccnc4)nc3c2F)c2ccccc2c1 [P-0803, 4-(2-(2-(1H-imidazol-1-yl)ethoxy)-4-((1R,5S)-3,8-diazabicyclo[3.2.1]octan-3-yl)-8-fluoroquinazolin-7-yl)naphthalen-2-ol]
- IC50 [1]: 0.0001 to 10 µM
- IC50 [2]: 0.0001 to 10 µM

SMILES: Oc1cc(-c2ccc3c(N4C[C@H]5CC[C@@H](C4)N5)nc(OCc4ncco4)nc3c2F)c2ccccc2c1 [P-0804, 4-(4-((1R,5S)-3,8-diazabicyclo[3.2.1]octan-3-yl)-8-fluoro-2-(oxazol-2-ylmethoxy)quinazolin-7-yl)naphthalen-2-ol]
- IC50 [1]: 10 to 100 µM
- IC50 [2]: 0.0001 to 10 µM

SMILES: Oc1cc(-c2ccc3c(N4C[C@H]5CC[C@@H](C4)N5)nc(OCC4CCOCC4)nc3c2F)c2ccccc2c1 [P-0805, 4-(4-((1R,5S)-3,8-diazabicyclo[3.2.1]octan-3-yl)-8-fluoro-2-((tetrahydro-2H-pyran-4-yl)methoxy)quinazolin-7-yl)naphthalen-2-ol]
- IC50 [1]: 10 to 100 µM
- IC50 [2]: 0.0001 to 10 µM

SMILES: Fc1cc(F)c2c(-c3c(F)cc4c(N5C[C@H]6CC[C@@H](C5)N6)nc(OCC56CCCN5CCC6)nc4c3F)c[nH]c2c1 [P-0806, 4-((1R,5S)-3,8-diazabicyclo[3.2.1]octan-3-yl)-7-(4,6-difluoro-1H-indol-3-yl)-6,8-difluoro-2-((tetrahydro-1H-pyrrolizin-7a(5H)-yl)methoxy)quinazoline]
- IC50 [1]: 0.0001 to 10 µM
- IC50 [2]: 0.0001 to 10 µM
